According to patent US5536737A, “Compound having prolyl endopeptidase inhibitory activity and pharmaceutical use thereof” (Japan Tobacco Inc., priority 1992, dated 1996):

Experiments:
Type in all cases: biochemical
prolyl endopeptidase = target: T1, prolyl endopeptidase (Rattus norvegicus, UniProt O70196); assay: Prolyl endopeptidase-inhibitory activity
T1 construct: prolyl endopeptidase extracted from rat brain; from tissue; host or cells: rat brain
T1 sequence (O70196 1-710): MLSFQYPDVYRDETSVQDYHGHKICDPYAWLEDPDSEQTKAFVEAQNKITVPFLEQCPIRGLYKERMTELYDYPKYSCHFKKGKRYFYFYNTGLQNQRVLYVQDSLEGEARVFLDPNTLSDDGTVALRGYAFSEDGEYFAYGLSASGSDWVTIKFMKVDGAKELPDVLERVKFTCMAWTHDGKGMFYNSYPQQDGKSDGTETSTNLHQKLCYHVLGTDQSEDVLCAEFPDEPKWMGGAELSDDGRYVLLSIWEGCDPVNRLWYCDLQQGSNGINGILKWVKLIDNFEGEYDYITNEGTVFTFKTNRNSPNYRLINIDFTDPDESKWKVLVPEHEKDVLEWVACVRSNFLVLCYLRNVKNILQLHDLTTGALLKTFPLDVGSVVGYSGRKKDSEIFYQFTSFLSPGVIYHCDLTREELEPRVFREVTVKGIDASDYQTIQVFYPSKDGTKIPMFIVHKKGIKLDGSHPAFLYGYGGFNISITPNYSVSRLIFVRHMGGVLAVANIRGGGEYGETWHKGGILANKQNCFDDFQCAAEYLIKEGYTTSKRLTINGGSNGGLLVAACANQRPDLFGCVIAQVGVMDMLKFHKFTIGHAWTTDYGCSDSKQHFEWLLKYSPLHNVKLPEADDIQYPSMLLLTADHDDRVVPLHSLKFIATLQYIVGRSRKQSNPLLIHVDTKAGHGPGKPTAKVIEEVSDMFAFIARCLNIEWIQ
Protocol: Prolyl endopeptidase-inhibitory activity
A mixture of a 0.1M potassium-sodium phosphate buffer (pH 7.0, 2675 μl ), a solution of the compound of the present invention in a 0.1M potassium-sodium phosphate buffer (pH 7.0, 100 μl ) and a solution of prolyl endopeptidase extracted from rat brain in a 25 mM sodium phosphate buffer (100 μl ) [123 unit/1, pH 6.8, containing 1 mM dithiothreitol and 0.5 mM EDTA, prepared by the method described in J. Neurochem., 35, 527 (1980)] was preincubated at 30° C. for 30 minutes. Thereto was added a 0.2 mM solution of 7-(N-succinyl-glycyl-prolyl)-4methylcoumarinamide (Peptide Institute, INC.) in a 0.1M potassium-sodium phosphate buffer (pH 7.0, 125 μl), and the mixture was incubated at 30° C. for 1 hour. The reaction mixture was immersed in ice (0° C.) to terminate the reaction, and the fluorescence (a1) was determined ten minutes later (excitation at 370 nm and emission at 440 nm). Concurrently, an experiment wherein, in the above system, the prolyl endopeptidase solution was substituted for a 25 mM sodium phosphate buffer (pH 6.8, containing 1 mM dithiothreitol and 0.5 mM EDTA) and an experiment wherein the solution of the compound of the present invention was substituted for a 0.1M potassium-sodium phosphate buffer (pH 7.0) were conducted. Each fluorescence (a2 and a3) was determined [See Tanpakushitsu Kakusan Koso, 29, 127 (1984)]. The prolyl endopeptidase inhibition was calculated by the following formula, and IC50, a concentration necessary for 50% inhibition, was estimated by using a semilogarithmic graph paper. [formula]

trypsin = target: T2, trypsin (Bos taurus, UniProt P00760); assay: Trypsin-inhibitory activity; conditions: concentration 0.1 μM; bovine pancreas, pH 8.0
T2 construct: purchased Sigma; host or cells: bovine pancreas
T2 sequence (P00760 24-246): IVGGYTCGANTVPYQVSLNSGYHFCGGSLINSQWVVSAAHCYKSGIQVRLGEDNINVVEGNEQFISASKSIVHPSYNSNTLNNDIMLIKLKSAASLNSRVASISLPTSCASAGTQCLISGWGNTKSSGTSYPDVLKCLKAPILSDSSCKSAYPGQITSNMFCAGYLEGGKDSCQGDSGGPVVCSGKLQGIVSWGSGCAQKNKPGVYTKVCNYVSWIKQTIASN
Protocol: (§1) Inhibitory activity against various proteases
(§2) The compound of the present invention having predetermined concentrations was tested for the specificity of the inhibitory activity against various proteases according to a known test method.
(§3) The methods for the determination of the inhibitory activity against various proteases other than prolyl endopeptidase and the method for calculating the inhibition are as follows.
Determination of trypsin-inhibitory activity
In the present invention, a 50 mM Tris-HCI buffer (pH 8.0) was used as a buffer for measurement.
To a mixture of the above-mentioned buffer (850 μl ), a solution of the compound of the present invention in the same buffer (50 μl ) and a 0.02 μM solution of trypsin (derived from bovine pancreas, Sigma) in the same buffer (50 μl ) was added a 200 μM solution of 7-(prolyl-phenylaranyl-arginyl)-4methylcoumarinamide (Peptide Institute, Inc.) in the same buffer (50 μl), and the mixture was incubated at 30° C. for 1 hour. The reaction mixture was immersed in ice (0° C.) to terminate the reaction, and the fluorescence (b1) was determined 1 hour later (excitation at 370 nm and emission at 440 nm). Concurrently, an experiment wherein, in the system above, the trypsin solution was substituted for a buffer and an experiment wherein the solution of the compound of the present invention was substituted for said buffer were conducted. Each fluorescence (b2 and b3) was determined.
(§4) Using the fluorescence x1, x2 and x3 wherein x is b, c, d, e or f, measured in the above-mentioned manner, the inhibition against various proteases was calculated by the following formula: [formula]

chymotrypsin = target: T3, chymotrypsin (Bos taurus, UniProt P00766); assay: Chymotrypsin-inhibitory activity; conditions: concentration 0.1 μM; bovine pancreas, pH 8.0
T3 construct: purchased Sigma; host or cells: bovine pancreas
Protocol: as §1, §2, §3
Determination of chymotrypsin-inhibitory activity
In completely the same manner as above, respective fluorescence (c1, c2 and c3) was determined using a 50 mM Tris-HCl buffer (pH 8.0) as a buffer for determination, a 0.2 μM solution of chymotrypsin (derived from bovine pancreas, Sigma) in the same buffer as an enzyme solution, and a 200 μM solution of 7-(N-succinyl-leucyl-leucyl-varyl-tyrosyl)-4-methylcoumarinamide (Peptide Institute, Inc.) in the same buffer as a substrate solution.
as §4

leucine aminopeptidase = assay: Leucine aminopeptidase-inhibitory activity; conditions: concentration 0.1 μM; swine kidney, pH 8.0
Protocol: as §1, §2, §3
Determination of leucine aminopeptidase-inhibitory activity
In completely the same manner as above, respective fluorescence (d1, d2 and d3) was determined using a 50 mM Tris-HCl buffer (pH 8.0) as a buffer for determination, a 0.2 μM solution of leucine aminopeptidase (derived from swine kidney, Sigma) in the same buffer as an enzyme solution and a 200 μM solution of 7-leucyl-4-methyl-coumarinamide (Peptide Institute, Inc.) in the same buffer as a substrate solution.
as §4

elastase = target: T4, elastase (Sus scrofa, UniProt P00772); assay: Elastase-inhibitory activity; conditions: concentration 0.1 μM; swine pancreas, pH 8.5
T4 construct: purchased Sigma; host or cells: swine pancreas
T4 sequence (P00772 27-266): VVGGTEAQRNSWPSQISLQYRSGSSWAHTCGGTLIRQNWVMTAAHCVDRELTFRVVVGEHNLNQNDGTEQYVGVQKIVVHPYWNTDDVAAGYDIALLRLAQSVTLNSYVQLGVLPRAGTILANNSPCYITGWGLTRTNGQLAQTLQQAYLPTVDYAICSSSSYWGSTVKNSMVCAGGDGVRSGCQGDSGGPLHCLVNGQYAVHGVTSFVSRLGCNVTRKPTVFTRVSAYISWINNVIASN
Protocol: as §1, §2, §3
Determination of elastase-inhibitory activity
In completely the same manner as above, respective fluorescence (e1, e2 and e3) was determined using a 1 mM Tris-HCl buffer (pH 8.5) as a buffer for determination, a 0.2 μM solution of elastase (derived from swine pancreas, Sigma) in the same buffer as an enzyme solution and a 200 μM solution of 7-(N-succinyl-aranyl-prolyl-aranyl)-4-methylcoumarinamide (Peptide Institute, Inc.) in the same buffer as a substrate solution.
as §4

cathepsin B = target: T5, cathepsin B (Bos taurus, UniProt P07688); assay: Cathepsin B-inhibitory activity; conditions: concentration 0.1 μM; bovine spleen, pH 6.0
T5 construct: purchased Sigma; host or cells: bovine spleen
Protocol: as §1, §2, §3
Determination of cathepsin B-inhibitory activity
In completely the same manner as above, respective fluorescence (f1, f2 and f3) was determined using a 100 mM sodium phosphate buffer (pH 6.0; containing 1.33 mM EDTA Na2) as a buffer for determination, a 0.02 μM solution of cathepsin B (derived from bovine spleen, Sigma) in the same buffer as an enzyme solution and a 200 μM solution of 7-(N-benzyloxy-carbonyl-phenylaranyl-arginyl)-4-methylcouma-rinamide (Peptid Institute, Inc.) in the same buffer as a substrate solution.
as §4

## Cc1ccc(CNC(=O)N2CCC[C@H]2C(=O)N2CCC[C@H]2C(=O)COC(=O)c2ccccc2)cc1 [Compound 8, (S)-2-[[(S)-2-(Benzoyloxyacetyl)-1-pyrrolidinyl]carbonyl]-N-[(4methylphenyl)methyl]-1-pyrrolidinecarboxamide]
Prolyl endopeptidase
  IC50: 0.4 nM
Prolyl endopeptidase; read-out: inhibition of prolyl endopeptidase
  inhibition at 0.1 µM: 100%
trypsin
  inhibition at 0.1 µM: 0%
chymotrypsin
  inhibition at 0.1 µM: 0%
Leucine aminopeptidase
  inhibition of leucine aminopeptidase: 0%
elastase
  inhibition at 0.1 µM: 0%
Cathepsin B
  inhibition at 0.1 µM: 0%
